From ChEMBL document CHEMBL1201862, “PubChem BioAssay data set” (2004)
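Dose response: 5 concentrations. Exposure: 48 h. Format: 96-well plates. Endpoint: linear interpolation; highest concentration if not reached. At the GI50, growth is halved.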 Activity calls are given as the source filed them. Rule as the data show it: active = GI50 up to about 1.1 µM and inactive = higher.

Key:
Assay in all cases: NCI tumour cell line growth inhibition, 48 h
[1] = tested on: TK-10
[2] = tested on: K562
[3] = tested on: HCT-116
[4] = tested on: NCI-H460
[5] = tested on: NCI-H23
[6] = tested on: HCC 2998
[7] = tested on: CCRF-CEM
[8] = tested on: SF-268
[9] = tested on: LOX IMVI
[10] = tested on: SF-295
[11] = tested on: HT-29
[12] = tested on: M14
[13] = tested on: KM12
[14] = tested on: SR
[15] = tested on: UO-31
[16] = tested on: MOLT-4
[17] = tested on: SNB-19
[18] = tested on: CAKI-1

Measured: GI50

O=C1O/C(=C(\Br)c2cccc3ccccc23)c2ccccc21
inactive: [1] 30.4 µM | [2] 25.2 µM | [3] 31.4 µM | [4] > 53.6 µM | [5] > 40 µM | [6] > 65.3 µM | [7] 20 µM | [8] > 37.5 µM | [9] 73.6 µM | [10] > 38.1 µM | [11] 22.5 µM | [12] > 44.2 µM | [13] 29.7 µM | [14] 19.7 µM | [15] > 41.3 µM | [16] 21.5 µM

COc1ccc(OC)c(NC(=O)CCC/C(CC(=O)c2ccc(O)c(OC)c2)=N\Nc2ccc([N+](=O)[O-])cc2)c1
inactive: [17] 26.6 µM | [1] 50.2 µM | [2] 30.1 µM | [3] > 100 µM | [4] > 100 µM | [5] 48.1 µM | [6] > 100 µM | [7] 68.2 µM | [8] > 100 µM | [9] 40.8 µM | [10] 52.8 µM | [11] > 100 µM | [12] > 100 µM | [13] 94.6 µM | [14] > 100 µM | [18] > 100 µM | [15] 83 µM | [16] > 100 µM

COC(C)(C)[C@H](O)C(O)CC(C)[C@@H]1CCC23CC12CCC1[C@@]2(C)CCC(OC(C)=O)C(C)(C)C2CC(OC2OC(COC(C)=O)C(O)C(O)C2O)[C@]13C (some centres undefined)
inactive: [17] 6.84 µM | [1] 7.23 µM | [2] 2.34 µM | [3] 2.26 µM | [4] 2.88 µM | [5] 7.18 µM | [6] 1.57 µM | [7] 2.55 µM | [8] 3.48 µM | [9] 2.79 µM | [10] 3.21 µM | [11] 1.22 µM | [12] 2.77 µM | [13] 2.16 µM | [18] 2.92 µM | [15] 6.95 µM | [16] 4.19 µM

CC(C)(C)C1CC[C@H]2c3c([nH]c4ccc(Br)cc34)[C@H]3C(=O)N(c4ccccc4)C(=O)[C@H]3[C@H]2C1 (some centres undefined)
inactive: [17] 23.6 µM | [1] 48.9 µM | [2] 11.5 µM | [3] 11.3 µM | [4] 8.09 µM | [5] 27.9 µM | [6] > 100 µM | [7] 5.52 µM | [8] 8.73 µM | [9] 19.1 µM | [10] 14 µM | [11] 43 µM | [12] 22 µM | [13] 17.6 µM | [14] 3.22 µM | [18] 53.7 µM | [15] 74.8 µM | [16] 15.6 µM

O=C1CCCC/C(=C/c2ccccc2)N1
inactive: [1] > 100 µM | [2] > 100 µM | [3] > 100 µM | [4] > 100 µM | [5] > 100 µM | [6] > 100 µM | [7] > 100 µM | [8] > 100 µM | [9] > 100 µM | [10] > 100 µM | [11] > 100 µM | [12] > 100 µM | [13] > 100 µM | [14] > 100 µM | [18] > 100 µM | [15] > 100 µM | [16] > 100 µM

CC(=O)O[C@H]1CC[C@@]2(C)C(=CC[C@@H]3C2CC[C@]2(C)Nc4[nH]ncc4CC32)C1 (some centres undefined)
inactive: [1] > 100 µM | [2] 20.7 µM | [3] 16.4 µM | [4] 17.3 µM | [5] 27.5 µM | [6] > 100 µM | [7] 18.2 µM | [10] 42.2 µM | [11] 16.9 µM | [12] 19.7 µM | [13] 16.6 µM | [18] > 100 µM | [15] 87.7 µM | [16] 15.4 µM

CC(=O)NC(CCCCNC(=O)NCCCl)C(=O)NCc1ccccc1 (centres undefined)
inactive: [17] > 100 µM | [1] > 100 µM | [2] > 100 µM | [3] > 100 µM | [4] > 100 µM | [5] > 100 µM | [6] > 100 µM | [7] > 100 µM | [8] > 100 µM | [10] > 100 µM | [11] > 100 µM | [12] > 100 µM | [13] > 100 µM | [14] > 100 µM | [18] > 100 µM | [15] > 100 µM | [16] > 100 µM

O=C(C(=O)N1CC2C=CC1CC2)c1c[nH]c2ccccc12 (centres undefined)
inactive: [17] > 100 µM | [1] > 100 µM | [2] > 100 µM | [3] > 100 µM | [4] > 100 µM | [6] > 100 µM | [7] > 100 µM | [8] > 100 µM | [9] > 100 µM | [10] > 100 µM | [11] > 100 µM | [12] > 100 µM | [13] > 100 µM | [14] > 100 µM | [18] > 100 µM | [15] > 100 µM | [16] > 100 µM

CCOP(=O)(C/C(O)=C1\C(=O)C(CCCNC(=O)OC(C)(C)C)N(Cc2ccc(OC)c(OC)c2)C1=O)OCC (centres undefined)
inactive: [17] > 100 µM | [1] > 100 µM | [2] > 100 µM | [3] > 100 µM | [4] > 100 µM | [5] > 100 µM | [6] > 100 µM | [7] > 100 µM | [8] > 100 µM | [9] > 100 µM | [10] > 100 µM | [11] > 100 µM | [12] > 100 µM | [13] > 100 µM | [14] > 100 µM | [15] > 100 µM | [16] > 100 µM

CCC(C)Cn1c(C)nc2c1C(=O)c1ccccc1C2=O (centres undefined)
inactive: [17] 53.6 µM | [1] 41.4 µM | [2] 5.42 µM | [3] > 10 µM | [4] 14.8 µM | [5] 20.7 µM | [6] 47.4 µM | [7] 21.4 µM | [8] 23.9 µM | [9] 19.4 µM | [10] 38.8 µM | [11] 28.2 µM | [12] 42.3 µM | [13] 27.9 µM | [14] 2.81 µM | [15] 24.5 µM | [16] 2.91 µM

COc1ccc(-c2cc(=O)c3ccccc3[nH]2)c(OC)c1
inactive: [17] > 100 µM | [1] > 100 µM | [2] > 100 µM | [3] > 100 µM | [4] > 100 µM | [5] > 100 µM | [6] > 10 µM | [7] > 100 µM | [8] > 100 µM | [9] > 100 µM | [10] > 100 µM | [11] > 100 µM | [12] > 100 µM | [13] > 100 µM | [14] > 100 µM | [15] > 100 µM | [16] > 100 µM

Cc1ccc2nc(NC(=O)C(=O)C(C(=O)c3ccc4ccccc4c3)C3OC(=O)c4ccccc43)sc2c1 (centres undefined)
inactive: [17] 6.55 µM | [3] 5.6 µM | [4] 4.43 µM | [5] 4.99 µM | [6] 11.3 µM | [8] 8.3 µM | [9] 10.2 µM | [10] 4.61 µM | [11] 15.2 µM | [12] 15 µM | [13] 16.8 µM | [14] 3.33 µM | [18] 12.2 µM | [15] 14.6 µM
